Results: publication PMC12866179, “Oxidized MIF is an Alzheimer’s disease drug target relaying external risk factors to tau pathology” (Cell Reports Medicine, 2025)

Legend:
[1] = system: Akt; assay: Akt phosphorylation (Ser473) in SH-SY5Y-tau-P301S cells, immunoblot; format: cell-based, human; details: dose-dependent and MIF-dependent
Method: After the protein concentration of cell lysates and homogenates had been determined using the DC Protein Assay Kit (Bio-Rad), 20 μg of each sample were dissolved in NuPAGE LDS Sample buffer (including 2% β-mercaptoethanol), boiled at 100°C for 5 min and then separated on NuPAGE Novex 4–12% Bis-Tris midi gels (Invitrogen) using NuPAGE MES SDS Running buffer (Invitrogen). Proteins were then transferred to a 0.2 μm nitrocellulose membrane (Amersham) in 24 mM Tris/192 mM glycine/20% MeOH at 400 mA for 2h using a tank blot system (Bio-Rad). In order to detect any blotting artifacts, the proteins on the membranes were visualized with Ponceau S (Sigma). The membranes were destained with PBS and then blocked with PBS/5% nonfat milk (Oxoid) for 1h at RT. Incubations with primary antibodies (diluted 1:1,000) in PBS-T were carried out overnight at 4°C. Then the membranes were washed three times with PBS-T for 10 min and afterward incubated with fluorescent secondary antibodies (IR Dye 680 or 800: Li-COR Biosciences.) diluted 1:20,000 in PBS-T for 1h at RT. Following three washing steps with PBS-T for 10 min each, the membranes were scanned using an LI-COR Odyssey CLX. Signal intensities were calculated using the Image Studio Version 2.1 software (LI-COR Biosciences). Blots were reused for staining with additional primary antibodies following the same procedure.

[2] = system: HSV-1; assay: HSV-1 infection of human brain organoids; format: cell-based, HSV-1 KOS strain; details: 250 nM PAV-174
Method: (§1) 60 days old human brain organoids with an estimated cell number of 2.5x10^6 were preincubated with DMSO or 250 nM of PAV-174 for 1h (final DMSO concentration was 0.5%). Then organoids were infected with HSV-1 at an MOI of 0.1 or 1.0. At the next day the medium was renewed and new compound was added. After another 24h, the organoids were washed two times with PBS and then either fixed with 4% PFA at 4°C overnight (for immunocytochemistry and TUNEL assay) or lysed with cold RIPA buffer (50 mM Tris-HCL, pH 7.4, 1% NP-40, 0.5% Na-deoxycholate, 0.1% SDS, 150 mM NaCl, 5 mM EDTA, 50 mM NaF) plus 1X Protease inhibitor cocktail (Roche) and phosphatase inhibitor cocktail (Sigma) followed by 4x sonication for 30s using a Misonix ultrasonic water bath at 100% amplitude. Protein concentration was determined with the DC Protein Assay (Bio-Rad). For immunocytochemistry and TUNEL assay fixed organoids were embedded in paraffin and section of 5 μm were prepared.
For immunocytochemistry of organoid sections, frozen slides were thawed and kept on RT until they were dry. Slides were washed with PBS and incubated for 5 min. Then the sections were incubated with 30 mM glycine in PBS for 5 min and permeabilized with PBS/0.5% TX100/0.1% Tween 20 for 10 min. To equally distribute the solutions a parafilm layer was placed on top. […]

[3] = system: human brain organoids; assay: TUNEL assay in human brain organoids; format: cell-based
Method: as §1
Apoptotic cells in sections of brain organoids were detected by TdT-mediated dUTP-biotin nick end labeling (TUNEL) using the DeadEnd Fluorometric TUNEL System (Promega) according to the manufacturers recommendations. At least three 5-μm sections of the brain organoids were analyzed by taking at least 10 images of each organoid. Dead cells were counted using Fiji/ImageJ (NIH).

[4] = in vivo; parameters: species or system Sprague Dawley rats
Method: Studies investigating the pharmacokinetics of PAV-617 were performed by Vipragen Biosciences Inc in […]. The animal care committee approval numbers for the studies are: M-Tox: VIP/IAEC/41/2016 and PK: VIP/IAEC/316/2021. […]
(C) Pharmacokinetic assessment of PAV-61 7 in Sprague Da wley ra ts (S D). Ma le SD ra ts (n=4) we re dosed via three ro utes na me ly intravenous (IV )- 1 mg/kg, (IP )- 5 mg/kg an d per ora l (P O)- 5 mg/kg. Plasma concentration wa s anal yzed at di ff e ren t time intervals. Pharmacokinetic pa ra met e rs we re de t erm ine d usi ng Win No nlin . Cma x (p ea k pl asma concentration) achieved through IV wa s 12 8 ng / mL, IP wa s 36 2. 6 ng / mL an d PO wa s 15 1. 1 ng / mL at Tmax (time of pe ak concentration obser ved) 1 h, 0. 5 h an d 4 h respectively. Co mpo un d PAV-61 7 ha s mo de rate t1/2 (ter min al ha lf-life ) through IV- 7. 8 h, IP- 7 h an d PO- 3. 3 h. CL (steady-state clearance) wa s found to be mo de rate- 20 mL /m in/kg which wa s 2. 7 5 times lo wer than ra t liver bl oo d flow . Vz (volum e of di str ibuti on) wa s found to be hi gh- 12 . 7 L/kg an d F (fracti on bi oavailabi lity) wa s found to be ver y go od through IP- 80 % an d mo de rate through PO- 41 % . […]

[5] = male, Sprague-Dawley, rat, ip, 5 mg/kg
[6] = male, Sprague-Dawley, rat, iv, 1 mg/kg
[7] = male, Sprague-Dawley, rat, po, 5 mg/kg

In the case of `CCc1cc(N2CCCC2)cc2[s+]c3cc(N4CCCC4)cc(C)c3nc12.[I-]` [PAV-174, 3,7-Di(pyrrolidine-1-yl) 1-ethyl-9-methyl-phenothiazin-5-ium iodide], the “phosphorylation of Akt at Ser473” value [1] is reported as “increased”, the “HSV-1 infection of human brain organoids (HSV-1-gC staining)” value [2] is reported as “completely abolished” and the “induction of apoptosis in human brain organoids” value [3] is reported as “no induction of apoptosis”. The “cell toxicity mediated by HSV-1 infection (TUNEL-positive cells)” value ([3]; HSV-1-infected brain organoids) was “lowered cell toxicity mediated by HSV-1 infection”.

With `[I-].c1cc2nc3ccc(N4CCCC4)cc3[s+]c2cc1N1CCCC1` [PAV-617, 3,7-Di(pyrrolidine-1-yl)phenothiazine-5-ium iodide] the “CL, times lower than rat liver blood flow” value ([4]; male, Sprague-Dawley) was 2. 7 5 times, the Vd ([4]; male, Sprague-Dawley, rat) was 12.7 L/kg and the Tmax [4, 5] was 0.5 h. The bioavailability [4, 5] was 80%, the half-life [4, 5] was 7 h and the Tmax [4, 6] was 1 h. For the same molecule, the half-life [4, 6] was 7.8 h, the Tmax [4, 7] was 4 h and the bioavailability [4, 7] was 41%. The half-life [4, 7] was 3.3 h, the “bioavailability following intraperitoneal administration” value ([4]; rat, ip) was “high bioavailability” and the “Cmax (peak plasma concentration), IP” value ([4]; rat, ip, 5 mg/kg) was 36 2. 6 ng/mL. The “Cmax (peak plasma concentration), IV” value ([4]; rat, iv, 1 mg/kg) was 12 8 ng/mL and the “Cmax (peak plasma concentration), PO” value ([4]; rat, po, 5 mg/kg) was 15 1. 1 ng/mL.
